Measurements reported in patent US9975874B2, “Factor XIa inhibitors” (Merck Sharp & Dohme Corp., priority 2014, dated 2018).

Legend:
[1] = molecular target: purified human Factor XIa (Homo sapiens (Human), UniProt P03951); assay: Factor XIa Assay; type: biochemical; conditions: substrate Z-Gly-Pro-Arg-AFC 100 μM, 40 pM enzyme, pH 7.4; read-out: FXIa IC50
Description: The effectiveness of a compound of the present invention as an inhibitor of Coagulation Factor XIa can be determined using a relevant purified serine protease, and an appropriate synthetic substrate. The rate of hydrolysis of the chromogenic or fluorogenic substrate by the relevant serine protease was measured both in the absence and presence of compounds of the present invention. Assays were conducted at room temperature or at 37° C. […] A decrease in the rate of fluorescence change in the presence of inhibitor is indicative of enzyme inhibition. Such methods are known to one skilled in the art. […]
Factor XIa determinations were made in 50 mM HEPES buffer at pH 7.4 containing 150 mM NaCl, 5 mM CaCl2, and 0.1% PEG 8000 (polyethylene glycol; JT Baker or Fisher Scientific). Determinations were made using purified human Factor XIa at a final concentration of 40 pM (Sekisui Diagnostics) and the synthetic substrate, Z-Gly-Pro-Arg-AFC, TFA salt (Sigma #C0980) at a concentration of 100 μM.
Times required to achieve equilibration between enzyme and inhibitor were determined in control experiments. Initial velocities of product formation in the absence (Vo) or presence of inhibitor (Vi) were measured. Assuming competitive inhibition, and that unity is negligible compared Km/[S], [I]/e, and [I]/e (where [S], [I], and e respectively represent the total concentrations, of substrate, inhibitor and enzyme), the equilibrium constant (Ki) for dissociation of the inhibitor from the enzyme can be obtained from the dependence of Vo/Vi on [I] shown in the following equation.

[2] = molecular target: purified Human plasma kallikrein (Homo sapiens (Human), UniProt P03952); assay: Kallikrein Assay; type: biochemical; conditions: Plasma kallikrein; substrate Acetyl-K-P-R-AFC, 0.5 nM enzyme, pH 7.4; read-out: PK IC50
Chain of purified Human plasma kallikrein (P03952 391-638): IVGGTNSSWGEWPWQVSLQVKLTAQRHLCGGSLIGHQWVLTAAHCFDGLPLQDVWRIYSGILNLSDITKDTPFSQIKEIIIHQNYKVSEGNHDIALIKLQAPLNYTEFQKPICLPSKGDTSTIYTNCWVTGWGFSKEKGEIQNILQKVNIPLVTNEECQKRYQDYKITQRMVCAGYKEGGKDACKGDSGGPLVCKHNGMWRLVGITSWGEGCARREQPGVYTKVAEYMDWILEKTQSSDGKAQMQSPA
Chain of purified Human plasma kallikrein (P03952 20-390 partner): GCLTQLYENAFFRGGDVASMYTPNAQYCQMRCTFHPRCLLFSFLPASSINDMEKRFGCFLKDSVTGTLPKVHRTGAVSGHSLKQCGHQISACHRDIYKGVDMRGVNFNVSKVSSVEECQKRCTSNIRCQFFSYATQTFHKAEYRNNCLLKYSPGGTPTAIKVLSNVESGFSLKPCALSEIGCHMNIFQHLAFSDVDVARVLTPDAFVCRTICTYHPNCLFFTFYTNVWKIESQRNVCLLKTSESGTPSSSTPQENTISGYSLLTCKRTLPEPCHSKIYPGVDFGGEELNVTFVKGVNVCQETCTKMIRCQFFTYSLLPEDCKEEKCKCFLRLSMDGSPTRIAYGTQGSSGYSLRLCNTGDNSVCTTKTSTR
Description: The effectiveness of a compound of the present invention as an inhibitor of Kallikrein can be determined using a relevant purified serine protease, and an appropriate synthetic substrate. The rate of hydrolysis of the chromogenic or fluorogenic substrate by the relevant serine protease was measured both in the absence and presence of compounds of the present invention. Assays were conducted at room temperature or at 37° C. […] A decrease in the rate of fluorescence change in the presence of inhibitor is indicative of enzyme inhibition. Such methods are known to one skilled in the art. The results of this assay are expressed as the inhibitory constant, Ki.
Kallikrein determinations were made in 50 mM HEPES buffer at pH 7.4 containing 150 mM NaCl, 5 mM CaCl2, and 0.1% PEG 8000 (polyethylene glycol; Fisher Scientific). Determinations were made using purified Human plasma kallikrein at a final concentration of 0.5 nM (Enzyme Research Laboratories) and the synthetic substrate, Acetyl-K-P-R-AFC (Sigma # C6608) at a concentration of […].
Times required to achieve equilibration between enzyme and inhibitor were determined in control experiments. The reactions were performed under linear progress curve conditions and fluorescence increase measured at 405 Ex/510 Em nm. […] IC50 was determined by inflection point from a four parameter logistic curve fit. Ki was calculated using the Cheng Prusoff equation, Ki=IC50/(1+([S]/Km)).

Chain of purified human Factor XIa (P03951 388-625): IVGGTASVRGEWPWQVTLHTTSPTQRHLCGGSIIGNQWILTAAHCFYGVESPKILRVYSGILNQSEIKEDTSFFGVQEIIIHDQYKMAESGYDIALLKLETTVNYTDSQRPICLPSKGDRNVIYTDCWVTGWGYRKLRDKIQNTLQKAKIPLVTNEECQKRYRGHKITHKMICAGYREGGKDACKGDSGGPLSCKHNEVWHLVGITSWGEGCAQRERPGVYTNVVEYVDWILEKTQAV
Chain of purified human Factor XIa (P03951 19-387 partner): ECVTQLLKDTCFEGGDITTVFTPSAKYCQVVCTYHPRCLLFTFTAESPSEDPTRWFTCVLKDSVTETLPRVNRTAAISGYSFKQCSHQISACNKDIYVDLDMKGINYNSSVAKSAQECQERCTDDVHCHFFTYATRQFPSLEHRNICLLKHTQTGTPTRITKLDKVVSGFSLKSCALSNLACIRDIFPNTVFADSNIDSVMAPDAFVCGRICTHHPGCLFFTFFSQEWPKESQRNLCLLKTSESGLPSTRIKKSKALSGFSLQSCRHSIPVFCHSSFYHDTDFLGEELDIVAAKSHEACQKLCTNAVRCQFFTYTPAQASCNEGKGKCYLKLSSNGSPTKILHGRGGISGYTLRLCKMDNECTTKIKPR

| IC50 [1] | IC50 [2] | Compound |
| --- | --- | --- |
| 0.019 µM | 0.714 µM | CCNC(=O)N1CCC(c2cccc(C(Cc3ccccc3)c3ccc(-c4cc(Cl)ccc4-n4cnnn4)c[n+]3[O-])c2)CC1 (racemic) [Example 24, 4-[3-(1-{5-[5-chloro-2-(1H-tetrazol-1-yl)phenyl]-1-oxidopyridin-2-yl}-2-phenylethyl)phenyl]-N-ethylpiperidine-1-carboxamide] |
| 0.000459 µM | 0.0777 µM | O=C(O)c1cccc(-c2cccc(C(Cc3ccccc3)c3ccc(-c4cc(Cl)ccc4-n4cnnn4)c[n+]3[O-])c2)c1 (racemic) [Example 7, 2-(1-(3′-carboxy-[1,1′-biphenyl]-3-yl)-2-phenylethyl)-5-(5-chloro-2-(1H-tetrazol-1-yl)phenyl)pyridine 1-oxide] |
| 0.00207 µM | 0.0343 µM | COC(=O)Nc1ccc(-c2cccc([C@H](Cc3ccccc3)c3ccc(-c4cc(Cl)ccc4-n4cnnn4)c[n+]3[O-])c2)cc1 [Example 3, (S)-5-(5-Chloro-2-(1H-tetrazol-1-yl)phenyl)-2-(1-(4′-((methoxycarbonyl)amino)-[1,1′-biphenyl]-3-yl)-2-phenylethyl)pyridine 1-oxide] |
| 0.0191 µM | 0.705 µM | O=C(O)c1ccc(-c2cccc(C(Cc3ccccc3)c3ccc(-c4cc(Cl)ccc4-n4cnnn4)c[n+]3[O-])c2)cc1 (racemic) [Example 10] |
